Assay results as given in US6436913B1, “Use of estramustine phosphate in the treatment of bone metastasis” (Pharmacia & Upjohn Company, priority 2000, dated 2002).

Legend:
clinical = conditions: male, human, serum, oral, 3200 mg
Procedure: (§1) The first group of six patients were given 3200 mg daily of clodronate only for four days. On the fifth day the AUC0-24h for the drug was calculated from serum concentrations of repeated blood samples. On the sixth day, 560 mg estramustine phosphate was add per oral to the clodronate treatment for the following four days. On day ten, the AUC0-24h for both drugs was calculated.
(§2) The second group of six patients were give orally 560 mg daily of estramustine phosphate only for four days. On the fifth day the AUC0-24h for the drug was calculated from serum concentrations of repeated blood samples. On the sixth day, 3200 mg clodronate was added to the estramustine phosphate treatment for the following four days. On day ten, the AUC0-24h for both drugs was calculated. The clodronate was provided as 400 mg capsules, and the estramustine phosphate used was estracyt in 140 mg capsules.
(§3) The method used in the analysis of the serum estramustine phosphate concentrations measures estrone and is insensitive to any metabolites. The estradiol-related metabolites (estramustine and estradiol) were not analyized in connection with the bioanalysis.

[1] = Mutual bioavailability of estramustine phosphate and clodronate: serum AUC0-24h and Cmax in patients; conditions: for AUC0-24h and Cmax, drug alone versus concomitantly with the other drug / Bioavailability, effect of adding the other drug: patients, clodronate 3200 mg and estramustine phosphate 560 mg daily; for AUC0-24h Estracyt: serum, mean
Procedure: as §1, §2, §3

mouse calvaria = test: Bone resorption assay, organ culture with 45Ca-prelabeled mouse calvaria (PTH-stimulated 45Ca release); assay type: cell-based; conditions: for Resorption / PTH-stimulated 45Ca release, result in words / Resorption, result in words: present only during preincubation; for Resorption / PTH-stimulated 45Ca release, result in words: then washed away; for Bone resorption (45Ca release), result in words: in vitro mouse calvaria, compound present during culture
Procedure: This example used the organ culture technique with mouse calvaria.
The organ culture technique was used with ^45Ca-prelabeled mouse calvaria. The method has been described by Lerner (1987) and Ljunggren et al. (1991). Newborn mice were injected subcutaneously with ^45CaCl (1.5 μCi/animal). After four days their calvaria were dissected, split into quarters and preincubated in phenol red free CMRL 1066 medium supplemented with 0.1% bovine serum albumin and 50 μg/ml gentamicin for 24 hours at 37° C. in a humidified atmosphere of 5% CO2 in air in the presence of indomethacin (1 μmol/l) and 10 nmol/l bovine parathyroid hormone (PTH). After washing the bone pieces, the medium was changed and cultures incubated for three more days in the same medium but without indomethacin in the presence or absence of estramustine phosphate or clodronate. Resorption was measured by assaying the ^45Ca liberated into the medium using a standard technique for liquid scintillation counting. Total ^45Ca was determined after hydrolysing the calvaria in 6 mol/l HCI overnight. Bone resorption was studied in various concentrations of estramustine phosphate and the effect of estramusine phosphate present only during the preincubation stage was checked in order to study its cytotoxcity.
Results are expressed as mean±SEM, n=5 or 10. Inhibition percentage was calculated as follows
Inhibition %=^45Ca released control bones (%)−^45Ca released from sample bones (%) ^45Ca released control bones*100

[2] = Experiment 2 (compound present only during preincubation), 100 μmol/l, mean±SEM

O=P(O)(O)C(Cl)(Cl)P(=O)(O)O [Clodronate, Disodium clodronate]
AUC(0-t) (clinical): 19300 ng·h/mL | Cmax (clinical): 1580 ng/mL | AUC0-24h and Cmax, drug alone versus concomitantly with the other drug [1]: did not differ significantly | Bioavailability, effect of adding the other drug [1]: no effect | inhibition at 0.1 µM (mouse calvaria; Mus musculus, Experiment 1, 0.1 μmol/l, mean±SEM, n=5 or 10): 0.9 ± 1.2% | inhibition at 1 µM (mouse calvaria; Mus musculus, Experiment 1, 1 μmol/l, mean±SEM, n=5 or 10): 3.5 ± 4.2% | inhibition at 10 µM (mouse calvaria; Mus musculus, Experiment 1, 10 μmol/l, mean±SEM, n=5 or 10): 28.3 ± 3.8% | inhibition at 100 µM (mouse calvaria; Mus musculus, Experiment 1, 100 μmol/l, mean±SEM, n=5 or 10): 51.4 ± 1.9% | inhibition at 1000 µM (mouse calvaria; Mus musculus, Experiment 1, 1000 μmol/l (precipitate noted for estramustine phosphate), mean±SEM): 25.7 ± 6.6% | inhibition at 100 µM (mouse calvaria; Mus musculus, Experiment 2 (compound present only during preincubation), 100 μmol/l, mean±SEM): 55.9 ± 0.5% | Resorption / PTH-stimulated 45Ca release, result in words (mouse calvaria): also inhibits resorption

C[C@]12CC[C@@H]3c4ccc(OC(=O)N(CCCl)CCCl)cc4CC[C@H]3[C@@H]1CC[C@@H]2OP(=O)([O-])[O-].[Na+].[Na+] [Estramustine phosphate, Estramustine phosphate sodium]
AUC0-24h Estracyt ([1]; Estracyt 560 mg daily concomitantly with Clodronate 3200 mg): 84.74 µM·h | AUC0-24h Estracyt ([1]; Estracyt only, 560 mg daily orally): 47.38 µM·h | AUC0-24h and Cmax, drug alone versus concomitantly with the other drug [1]: differed statistically | Bioavailability, effect of adding the other drug [1]: almost doubled | 45Ca-release (%) (mouse calvaria; Experiment 1, 0.01 μmol/l, mean±SEM): 51.5 ± 3.0% | Inhibition % (mouse calvaria; Experiment 1, 0.01 μmol/l, mean±SEM, n=5 or 10): 5.5 ± 5.5% | 45Ca-release (%) (mouse calvaria; Experiment 1, 0.1 μmol/l, mean±SEM): 50.6 ± 1.6% | Inhibition % (mouse calvaria; Experiment 1, 0.1 μmol/l, mean±SEM, n=5 or 10): 7.2 ± 2.9% | 45Ca-release (%) (mouse calvaria; Experiment 1, 1 μmol/l, mean±SEM): 55.4 ± 2.9% | Inhibition % (mouse calvaria; Experiment 1, 1 μmol/l, mean±SEM, n=5 or 10): 2.0 ± 5.4% | 45Ca-release (%) (mouse calvaria; Experiment 1, 10 μmol/l, mean±SEM): 34.7 ± 3.1% | Inhibition % (mouse calvaria; Experiment 1, 10 μmol/l, mean±SEM, n=5 or 10): 34.7 ± 3.1% | 45Ca-release (%) (mouse calvaria; Experiment 1, 100 μmol/l, mean±SEM): 16.7 ± 0.2% | Inhibition % (mouse calvaria; Experiment 1, 100 μmol/l, mean±SEM, n=5 or 10): 65.3 ± 2.3% | Inhibition % (mouse calvaria; Experiment 1, 1000 μmol/l (precipitate noted for estramustine phosphate), mean±SEM): 55.9 ± 0.6% | 45Ca-release (%) (mouse calvaria; Experiment 1, 1000 μmol/l (precipitate), mean±SEM): 24.0 ± 2.2% | Inhibition % (mouse calvaria; Experiment 2 (compound present only during preincubation), 10 μmol/l, mean±SEM): −17.9 ± 8.7% | 45Ca-release (%) (mouse calvaria; [2]): 11.9 ± 0.6% | Inhibition % (mouse calvaria; [2]): 70.4 ± 1.4% | Bone resorption (45Ca release), result in words (mouse calvaria): inhibited bone resorption in this in vitro model concentration-dependently and about as effectively as clodronate | Bone resorption (45Ca release), result in words (mouse calvaria; listed as estramustine phosphate sodium): dose-dependently inhibited | Resorption / PTH-stimulated 45Ca release, result in words (mouse calvaria): PTH could not stimulate ^45Ca release from bones | Resorption, result in words (mouse calvaria; 10 μmol/l): slightly increased | Resorption, result in words (mouse calvaria; 100 μmol/l): strongly inhibited
